# Measurements as given in PMC9995496, “A screen for MeCP2-TBL1 interaction inhibitors using a luminescence-based assay” (Scientific Reports, 2023).
# Where a name gives a salt, the structure may show the parent alone.
# Test system: PRKACA-PRKAR2A interaction (SmBiT-PRKACA / LgBiT-PRKAR2A), protein kinase A
# Parameters: NanoLuc complementation counter-screen in cell extract, PRKACA with PRKAR2A, loss of luminescence, detects NanoLuc interference
# Conditions: 0.5 h, 20 µM; inhibitor
row,Structure (SMILES),Inh (PKA)
1,"N[C@@H](Cc1ccc(N(CCCl)CCCl)cc1)C(=O)O [UM0132725:02, Melphalan]",3.23

# Same assay, conditions: counter-screen for NanoLuc interference, 0.5 h, 20 µM, inhibitor, Inh (PKA)
row,Structure (SMILES),Inh (PKA) [%]
1,"CCOC(=O)[C@@H](N)CCC(=O)N[C@@H](CSCc1ccccc1)C(=O)N[C@@H](C(=O)OCC)c1ccccc1 [UM0141959:01, Ezatiostat]",2.198
2,"CCCCCCOC(=O)NC(=N)c1ccc(NCc2nc3cc(C(=O)N(CCC(=O)OCC)c4ccccn4)ccc3n2C)cc1 [UM0141539:01, Dabigatran etexilate mesylate]",7.702

# Same assay, conditions: counter-screen for NanoLuc interference; 0.5 h, 20 µM; inhibitor
row,Structure (SMILES),Inh (PKA) [%]
1,"Cc1cn(CCN2CCN(c3ccccc3-c3cc(C#N)cc(C(=O)NCCCN4CCCC4)c3)CC2)c2ccccc12 [UM0142746:01, LLY507]",10.14
2,"COc1ccc(C[C@H](N)C(=O)N[C@H]2[C@@H](O)[C@H](n3cnc4c(N(C)C)ncnc43)O[C@@H]2CO)cc1 [UM0142790:01, Puromycin dihydrochloride]",-1.723
3,"CCOC(=O)c1sc(NC(=O)c2ccco2)c(SC#N)c1C [UM0139891:02, CBR-5884]",28.46
4,"Cc1cccc(-c2[nH]ncc2-c2ccc3ncccc3n2)n1 [UM0141613:01, RepSox]",2.359
5,"CCN(CC)CCNC(=O)c1c(C)[nH]c(/C=C2\C(=O)Nc3ccc(F)cc32)c1C [UM0141973:01, Sunitinib malate]",55.62
6,"CC(C)(C(=O)c1cccnc1)c1cccnc1 [UM0119067:03, Metyrapone]",1.858
7,"COc1cc(OC)c(NC(=O)Nc2cc(C)on2)cc1Cl [UM0142328:01, PNU-120596]",15.14
8,"CC(C)(C)NC(=O)[C@H]1CC[C@H]2[C@@H]3CC[C@H]4NC(=O)C=C[C@]4(C)[C@H]3CC[C@]12C [UM0133719:02, Finasteride]",1.602
9,"CC(=O)Nc1cccc(-n2c(=O)n(C3CC3)c(=O)c3c(Nc4ccc(I)cc4F)n(C)c(=O)c(C)c32)c1 [UM0130977:03, Trametinib (GSK1120212)]",2.214
10,"Nc1ncnc2c1c(I)cn2[C@@H]1O[C@H](CO)[C@@H](O)[C@H]1O [UM0141507:01, 5-Iodotubercidin]",18.13
11,"C=C[C@H]1CN2CC[C@H]1C[C@H]2[C@H](O)c1ccnc2ccc(OC)cc12 [UM0142415:01, Quinine HCl Dihydrate]",1.874
12,"CCOc1ccn(-c2ccc(F)cc2)c(=O)c1C(=O)Nc1ccc(Oc2ccnc(N)c2Cl)c(F)c1 [UM0141902:01, BMS-777607]",68.15
13,"Cc1onc(-c2ccccc2)c1-c1ccc(S(N)(=O)=O)cc1 [UM0121300:03, Valdecoxib]",9.885
14,"Cn1c2ccccc2c2c3c(c4c5ccccc5n(CCC#N)c4c21)C(=O)NC3=O [UM0142134:01, ICP 103]",13.04
15,"O=C(Cc1ccccc1)Nc1nnc(CCSCCc2nnc(NC(=O)Cc3ccccc3)s2)s1 [UM0142712:01, BPTES]",8.754
16,"CC(C)N(CCC(=O)c1ccc2ccccc2c1)Cc1ccccc1 [UM0120052:04, ZM 39923 HCl]",18.59
17,"CCCC(C(=O)OCCN(CC)CC)(c1ccccc1)c1ccccc1 [UM0118177:04, SKF 525A (hydrochloride)]",14.38
18,"O=C(NCc1cccc(O)c1)c1cc2cc(F)ccc2[nH]1 [UM0142568:01, KX1-004]",5.75
19,"CO[C@H]1C[C@@H]2CC[C@@H](C)[C@@](O)(O2)C(=O)C(=O)N2CCCC[C@H]2C(=O)O[C@H]([C@H](C)C[C@@H]2CC[C@@H](O)[C@H](OC)C2)CC(=O)[C@H](C)/C=C(\C)[C@@H](O)[C@@H](OC)C(=O)[C@H](C)C[C@H](C)/C=C/C=C/C=C/1C [UM0141925:01, Rapamycin (Sirolimus)]",2.249
20,"Cc1nc(NC(=O)N2CCC[C@H]2C(N)=O)sc1-c1ccnc(C(C)(C)C(F)(F)F)c1 [UM0142005:01, BYL-719]",2.69
21,"CC(C)(C)n1nc(-c2ccc(Cl)cc2)c2c(N)ncnc21 [UM0141956:01, PP 2 (AG 1879)]",33.15
22,"CC(C)[C@H](C(=O)Nc1ccc(C(=O)NO)cc1)c1ccccc1 [UM0141708:01, AR-42 (OSU-HDAC42)]",2.219
